Measured values published in patent US20240398814A1, “KRAS INHIBITOR AND HDAC INHIBITOR COMBINATION FOR THE TREATMENT OF CANCER” (Northwestern University, priority 2023, published 2024).

Tests used:
[1] = system: NF-kB/p65 protein; assay: Western blot of p65 nuclear localisation and K310 acetylation in KL LJE1 cells; format: cell-based, mouse
Procedure: (§1) Protein lysates in CST buffer (20 mM Tris pH 7.5, 150 mM NaCl, 1% Triton X-100, 50 mM NaF, 1 mM EDTA, 1 mM EGTA, 2.5 mM PyroPhosphate, 2 mM beta-glycerol-phosphate, 1 mM orthovanadate, 0.01 mM Calyculan A) with protease inhibitors were equilibrated for protein levels using a BCA protein assay kit (Pierce), resolved on 8% SDS-PAGE gels, and transferred to membrane. Membranes were blocked in milk, incubated o/n at 4C in diluted primary antibody, washed with TBS-T, incubated 1 hr in secondary antibody diluted in TBS-T plus milk, washed in TBS-T, and developed using SuperSignal ECL. Secondary antibodies: anti-rabbit (Millipore AP132P) and anti-mouse (Millipore AP124P). Nuclear fractions were isolated using a NE-PER nuclear and cytoplasmic extraction kit (Thermofisher) under manufacturers conditions.
p65-expressing DNA constructs RelA-Flag (22) (Addgene 20012) and GFP-RelA (21) (Addgene 23255) were transiently transfected into KL LJE1 cells using Lipofectamine 2000 (Thermo Fisher Scientific) according to the manufacturer's protocol. Cells were treated with drug as indicated 24 hours after transfection.

[2] = system: KL NSCLC GEMM; assay: Short-term (5 day) in vivo entinostat treatment, qRT-PCR on lung tumors and liver; parameters: species or system mouse; settings: 10 mg/kg/day entinostat, oral gavage, 5 days
Procedure: KL mice were intratracheally intubated with lentivirus expressing Cre recombinase to initiate tumorigenesis and imaged biweekly by BLI starting 4 weeks after Cre administration. When tumor burden in all mice was greater than 5×107 photons/see as determined by BLI, treatment was initiated. Mice were randomized and treated daily by oral gavage for 5 days with vehicle or 10 mg/kg entinostat. In vivo treatment doses were selected based on publications (39, 69-71). Entinostat was diluted to 1 mg/mL in vehicle (0.5% Methyl cellulose in water), vortexed, sonicated 10 minutes, and administered at 10 mg/kg. Drug and vehicle was administered starting at ˜9am daily throughout the duration of treatment. The experiment was terminated after 5 days of treatment, at which time primary lung tumors and liver were isolated by dissection and immediately flash frozen.
(§2) mRNA was prepared using the Quick-RNA Miniprep kit (Zymo Research), including DNase treatment. cDNA was synthesized from 2 μg of RNA using SuperScript III (Life Technologies), and qPCR was carried out with diluted cDNA, appropriate primers, and SYBR Green PCR master mix (ThermoFisher Scientific) using a C1000 Thermal Cycler (BioRad). Relative mRNA levels were calculated using the delta Ct method, using Tbp as an internal control.
Next, pharmacological inhibition of HDAC3 was assessed for impacting HRCG expression in vivo as observed in cell culture experiments (FIG. 12B, 18D-G). Lung tumorigenesis was initiated in KL GEMM mice, and disease growth was monitored over time using bioluminescence imaging (BLI) potentiated by the Rosa26^LSL-luferase genetic allele. When tumor burden was established in all mice (BLI >5×10^7 photons/sec), mice were randomized and treatment was initiated. Mice were treated daily for 5 days with vehicle or 10 mg/kg/day entinostat administered by oral gavage, after which lung tumors and liver were collected (FIG. 14C). Using qRT-PCR, gene expression of HDAC3 target genes in lung tumors and liver was assessed. […] To confirm that entinostat treatment was engaging on-target effects in the liver samples, the gene expression of canonical HDAC3 liver target genes Nr1d1 and Arntl was assessed (FIG. 14E).

[3] = system: KL LJE1 cells; assay: qRT-PCR of chemokine (HRCG) gene expression in KL LJE1 cells; format: cell-based, mouse
Procedure: (§3) All cell lines were incubated at 37° C. and were maintained in an atmosphere containing 5% CO2. Cells were tested for Mycoplasma (Lonza) using manufacturer's conditions and were deemed negative. Cells were grown in Dulbecco's modified Eagles medium (DMEM) plus 10% fetal bovine serum (Gibco) and were continuously maintained under antibiotic selection for stable cell lines. Proliferation assays were performed by plating 2×10^3 cells per well of a 6-well plate, and cells were counted 5 days post-plating. Drug treatments were carried out using the following doses: entinostat 1 uM or 2 uM, RGFP966 10uM, TSA 0.5 uM, BRD3308 5 uM, trametinib 5 nM, 10 nM, and 25 nM, and MRTX1133 10 nM, 25 nM, and 50 nM, as indicated for the indicated treatment lengths. Media was changed and fresh drug added every 2 days.
as §2

[4] = system: KL LJE1 cells; assay: Western blot and qRT-PCR of FGFR1, NKX2-1 and ERK phosphorylation in drug-treated KL LJE1 cells; format: cell-based, mouse; settings: 13 days
Procedure: as §3, §2, §1

[5] = system: A549 cells; assay: qRT-PCR of chemokine gene expression in A549 cells; format: cell-based, human; settings: 2 uM entinostat 3 days, 5 uM BRD3308 4 days
Procedure: as §3, §2

[6] = system: H460 cells; assay: qRT-PCR of chemokine gene expression in H460 cells; format: cell-based, human; settings: 1 uM entinostat 4 days, 5 uM BRD3308 4 days
Procedure: as §3, §2

For Nc1ccccc1NC(=O)c1ccc(CNC(=O)OCc2cccnc2)cc1 [entinostat], the “acetylation of wildtype p65 at K310 (versus K310A mutant)” value ([1]; 5 hours, 1 uM entinostat or 5 uM BRD3308) was “induce acetylation of wildtype p65 at K310”, the “K310 acetylation on transfected p65” value ([1]; Flag-p65 or GFP-p65, 6 hr, 2 uM entinostat) was “increased K310 acetylation on p65” and the “quantity of p65 protein in the nuclear fraction” value ([1]; Western blot, 6 hr, 2 uM entinostat, 10uM RGFP966, 0.5 uM TSA) was “increased the quantity of p65 protein in the nuclear fraction”. For the same compound, the “Cxc110 expression in vivo, lung tumors versus liver” value [2] was “induced upon entinostat treatment selectively in lung tumor cells”, the “HRCG expression in livers from the same mice” value [2] was “did not induce HRCG expression” and the “HRCG expression in lung tumors” value [2] was “potently induced HRCG expression”. For the same compound, the “Nr1d1 and Arntl gene expression in the liver” value [2] was “impacted Nr1d1 and Arntl gene expression in the liver”, the “HRCG gene expression response in cells expressing p65 WT or p65 K310A” value ([3]; 3 days, 1 uM entinostat) was “K310 only significantly altered the gene expression response of Cc120, Cxc15, and Cc15” and the “gene expression induction in NT versus p65 KO cells” value ([3]; 3 days, 1 uM entinostat or 5 uM BRD3308) was “p65 facilitates maximal gene expression induction”. The “chemokine (SASP) gene expression” value ([3]; 72 hr, 2 uM entinostat or 10uM RGFP966) was “robust induction of gene expression”, the FGFR1 protein ([4]; Western blot, 10 nM trametinib, 1 uM entinostat) was “neither FGFR1 protein or mRNA levels were impacted” and the “FGFR1 mRNA levels” value ([4]; qRT-PCR, 1 uM entinostat alone) was “neither FGFR1 protein or mRNA levels were impacted”. The “chemokine (SASP) gene expression” value [5] was “induced the expression of these genes” and the “chemokine (SASP) gene expression” value [6] was “induced the expression of these genes”.
